What was measured:
Ctenocephalides felis [1] = assay: In vitro contact test with fleas; settings: read-out: insecticidal activity; for pest or weed control at 0.2 µg/cm2, 0.2 µg/cm2: dose 0.2 μg/cm^2, dead or moribund fleas after 48 h; for pest or weed control at 1 µg/cm2, 1 µg/cm2: dose 1 μg/cm^2, dead or moribund fleas after 48 h
Method in brief: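 Adult male and female cat fleas (5-10 per tube) placed in glass tubes coated with compound from acetone solution (900 ppm gives 5 μg/cm^2), kept at room temperature and ambient humidity. After 48 h, motionless or uncoordinated fleas scored dead or moribund; activity expressed as % dead or moribund.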

Amblyomma americanum = assay: In vitro contact test with hard ticks (Amblyomma americanum nymphs); settings: read-out: acaricidal activity
Method in brief: (§1)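 Adult R. sanguineus, I. ricinus, D. variabilis or A. americanum nymphs exposed in glass vials coated with compound from acetone (900 ppm gives 5 μg/cm^2). Held 48 h at room temperature (R. sanguineus) or 21° C., 85% rel. hum.; then heated at 45-50° C. ≤5 min, motionless or uncoordinated ticks scored dead/moribund.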

Ixodes ricinus = assay: In vitro contact test with adult hard ticks (Ixodes ricinus); settings: read-out: acaricidal activity; for pest or weed control at 0.2 µg/cm2, 0.2 µg/cm2: dose 0.2 μg/cm^2, 48 h; for pest or weed control at 1 µg/cm2, 1 µg/cm2: dose 1 μg/cm^2, 48 h; for pest or weed control at 5 µg/cm2, 5 µg/cm2: dose 5 μg/cm^2, 48 h
Protocol: In Vitro Contact Tests with Adult Hard Ticks
In vitro contact tests with ticks were conducted with adult males and females of Rhipicephalus sanguineus, Ixodes ricinus, or Dermacentor variabilis, or nymphs of Amblyomma americanum.
For the coating of the test vials, the test substance was dissolved and diluted in acetone p.a. to the desired concentration. The solution was then homogeneously applied to the inner wall and base of a glass vial by turning and rocking on an orbital shaker until complete evaporation of the solvent. For example, with a 900 ppm solution of test substance, an area-based dose of 5 μg/cm^2 was achieved.
After the solvent was completely evaporated, 5-10 adult ticks were put in each coated test vial, which was then sealed with a perforated plastic lid and incubated in a horizontal position in the dark at room temperature and ambient humidity (Rhipicephalus sanguineus) or in a climate-controlled cabinet (Ixodes ricinus, Dermacentor variabilis, Amblyomma americanum [21° C., 85% rel. hum.]). Acaricidal activity against the respective tick species was determined after 48 h. For this, ticks were collected to the base of the test vial by gentle knocking, and test vials were then incubated on a hotplate at 45-50° C. for no longer than 5 min. Ticks which remained motionless on the base of the test vial or moved uncoordinated without deliberately climbing up to avoid the heat were considered dead or moribund, respectively.
A substance was judged to have good acaricidal activity against the respective tick species when at least 80% of ticks were found dead or moribund at a dose of the substance of g/cm^2. An acaricidal activity of 100% means all ticks were dead or moribund. An acaricidal activity of 0% means none of the ticks was found dead or moribund.

Rhipicephalus sanguineus = assay: In vitro contact test with adult hard ticks (Rhipicephalus sanguineus); settings: read-out: acaricidal activity; for pest or weed control at 0.2 µg/cm2, 0.2 µg/cm2: dose 0.2 μg/cm^2, 48 h; for pest or weed control at 1 µg/cm2, 1 µg/cm2: dose 1 μg/cm^2, 48 h; for pest or weed control at 0.04 µg/cm2, 0.04 µg/cm2: dose 0.04 μg/cm^2, 48 h
Method in brief: as §1

[2] = tested on: Rhipicephalus (Boophilus) microplus; assay: In vitro injection test with Rhipicephalus (Boophilus) microplus (BOOPMI Inj); settings: 168 h, laid fertile eggs after 7 days, read-out: acaricidal activity; for pest or weed control at 32 ng: dose 0.032 μg/animal injected; for pest or weed control at 0.00016 mg: dose 0.16 μg/animal injected; for pest or weed control at 0.0008 mg: dose 0.8 μg/animal injected
Method in brief: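 Test substance in DMSO; 1 μl injected into abdomen of each of 5 engorged adult female ticks, then held at 28° C., 85% rel. hum. Activity scored after 7 days from laying of fertile eggs: 100% = no eggs or all infertile, 0% = all eggs fertile.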

Ctenocephalides felis [3] = assay: Ctenocephalides felis in-vitro feeding test with fleas (CTECFE oral); settings: 48 hours, read-out: insecticidal feeding activity; for pest or weed control at 0.032 ppm: dose 0.032 ppm in citrated cattle blood; for pest or weed control at 0.16 ppm: dose 0.16 ppm in citrated cattle blood; for pest or weed control at 0.8 ppm: dose 0.8 ppm in citrated cattle blood; for pest or weed control at 4 ppm: dose 4 ppm in citrated cattle blood
Method in brief: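 About 20 unfed adult cat fleas fed through parafilm on citrated cattle blood containing test substance (DMSO solution diluted in blood), held at about 37° C. Kill rate scored after 48 hours, 100% meaning all fleas dead.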

Spodoptera litura = assay: Insecticidal testing against common cutworm; assay type: in vivo; settings: foliar, 144 h, concentration 100 ppm, cabbage leaf dip, second-stage larvae, after 6 days, read-out: pesticidal rate
Text: Insecticidal Testing Against Common Cutworm (Spodoptera litura)

Plutella xylostella = assay: Insecticidal testing against diamondback moth; assay type: in vivo; settings: foliar, 144 h, concentration 100 ppm, cabbage leaf dip, third-stage larvae, after 6 days, read-out: pesticidal rate
Text: Insecticidal Testing Against Diamondback Moth (Plutella xylostella)

Laodelphax striatellus = assay: Insecticidal testing against small brown planthopper; assay type: in vivo; settings: 144 h, concentration 100 ppm, sprayed rice seedlings, after 6 days, read-out: pesticidal rate
Method in brief: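 Acetone solution of compound at a set concentration sprayed onto rice seedlings, air-dried, then exposed to 10 planthoppers (one group). Held at 25° C; survival rate recorded after 6 days.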

Dermacentor variabilis = assay: In vitro contact test with adult hard ticks (Dermacentor variabilis); settings: read-out: acaricidal activity; for pest or weed control at 0.2 µg/cm2, 0.2 µg/cm2: dose 0.2 μg/cm^2, 48 h; for pest or weed control at 1 µg/cm2, 1 µg/cm2: dose 1 μg/cm^2, 48 h
Method in brief: as §1

Structure (SMILES)	pest or weed control at 0.2 µg/cm2, 0.2 µg/cm2 (Ctenocephalides felis [1])	pest or weed control at 1 µg/cm2, 1 µg/cm2 (Ctenocephalides felis [1])	pest or weed control at 0.2 µg/cm2, 0.2 µg/cm2 (Ixodes ricinus)	pest or weed control at 1 µg/cm2, 1 µg/cm2 (Ixodes ricinus)	pest or weed control at 5 µg/cm2, 5 µg/cm2 (Ixodes ricinus)	pest or weed control at 0.2 µg/cm2, 0.2 µg/cm2 (Rhipicephalus sanguineus)	pest or weed control at 1 µg/cm2, 1 µg/cm2 (Rhipicephalus sanguineus)	pest or weed control at 32 ng [2]	pest or weed control at 0.00016 mg [2]	pest or weed control at 0.0008 mg [2]	pest or weed control at 0.032 ppm (Ctenocephalides felis [3])	pest or weed control at 0.16 ppm (Ctenocephalides felis [3])	pest or weed control at 0.8 ppm (Ctenocephalides felis [3])	pest or weed control at 4 ppm (Ctenocephalides felis [3])	pest or weed control at 100 ppm (Spodoptera litura)	pest or weed control at 100 ppm (Plutella xylostella)	pest or weed control at 100 ppm (Laodelphax striatellus)	pest or weed control at 0.2 µg/cm2, 0.2 µg/cm2 (Dermacentor variabilis)	pest or weed control at 1 µg/cm2, 1 µg/cm2 (Dermacentor variabilis)	pest or weed control at 0.04 µg/cm2, 0.04 µg/cm2 (Rhipicephalus sanguineus)	other results
O=C(Nc1cccc(C(=O)Nc2c(I)cc(C(F)(C(F)(F)F)C(F)(F)F)cc2OC(F)(F)F)c1F)c1ccc(C(F)(F)F)nc1 [Compound 118, N-(2-fluoro-3-((2-iodo-4-(perfluoropropan-2-yl)-6-(trifluoromethoxy)phenyl)carbamoyl)phenyl)-6-(trifluoromethyl)nicotinamide]	95%	95%	90%	90%	90%	90%	90%	100%	100%	100%	95%	95%	95%	95%	≥ 70%	≥ 70%	≥ 70%	–	–	–	pest or weed control at 0.2 µg/cm2, 0.2 µg/cm2 (Amblyomma americanum; dose 0.2 μg/cm^2, 48 h): 90%; pest or weed control at 1 µg/cm2, 1 µg/cm2 (Amblyomma americanum; dose 1 μg/cm^2, 48 h): 90%
CN(C(=O)c1ccc(F)cc1)c1cccc(C(=O)Nc2c(Br)cc(C(F)(C(F)(F)F)C(F)(F)F)cc2OC(F)(F)F)c1F [Compound 72]	95%	95%	90%	90%	90%	90%	90%	100%	100%	100%	–	–	95%	95%	≥ 70%	≥ 70%	≥ 70%	90%	90%	90%	–
O=C(Nc1cccc(C(=O)Nc2c(Br)cc(C(F)(C(F)(F)F)C(F)(F)F)cc2OC(F)(F)F)c1F)c1ccc(C(F)(F)F)nc1 [Compound 99, N-(2-fluoro-3-((2-bromo-4-(perfluoropropan-2-yl)-6-(trifluoromethoxy)phenyl)carbamoyl)phenyl)-6-(trifluoromethyl)nicotinamide]	–	–	–	90%	–	90%	90%	–	100%	100%	–	95%	95%	95%	≥ 70%	≥ 70%	≥ 70%	90%	90%	–	–
CN(C(=O)c1ccc(F)cc1)c1cccc(C(=O)Nc2c(Cl)cc(C(F)(C(F)(F)F)C(F)(F)F)cc2C(F)(F)F)c1F [Compound 68]	95%	95%	–	90%	90%	90%	90%	–	100%	100%	95%	95%	95%	95%	≥ 70%	≥ 70%	≥ 70%	–	90%	90%	–

Source: US11696913B2, “Prolonged ectoparasite-controlling agent for animal” (MITSUI CHEMICALS AGRO, INC., priority 2017, dated 2023)
